Measurements as given in patent US5919785A, “Inhibitors of farnesyl-protein transferase” (Merck & Co., Inc., priority 1997, dated 1999).
Structures can show the parent of a compound that is named as a salt. Where two headings read alike, the source gives them in different places.

Molecular target: T1, human FPTase (Homo sapiens, UniProt P49354+P49356)
T1 construct: made in house
Assay: In vitro inhibition of ras farnesyl transferase (human FPTase assay)
Type: biochemical
Protocol: Assays of farnesyl-protein transferase. […] Reactions were initiated with FPTase and stopped with 1 ml of 1.0 M HCL in ethanol. Precipitates were collected onto filter-mats using a TomTec Mach HI cell harvester, washed with 100% ethanol, dried and counted in an LKB β-plate counter. […] Purified compounds were dissolved in 100% dimethyl sulfoxide (DMSO) and were diluted 20-fold into the assay. Percentage inhibition is measured by the amount of incorporation of radioactivity in the presence of the test compound when compared to the amount of incorporation in the absence of the test compound. […] Human FPTase activity was assayed as described above with the exception that 0.1% (w/v) polyethylene glycol 20,000, 10 μM ZnCl2 and 100 nM Ras-CVIM were added to the reaction mixture. Reactions were performed for 30 min., stopped with 100 μl of 30% (v/v) trichloroacetic acid (TCA) in ethanol and processed as described above for the bovine enzyme.

SMILES | IC50 [µM] | IC50 (human FPTase, [3H]-FPP, 100 nM Ras-CVIM, 30 min, read-out: IC50, inhibitory activity against human FPTase) [µM]
N#Cc1ccc(Cn2cncc2CN2CC(=O)N(c3ccccc3)CC2=O)cc1 [Example 4, 4-[1-(4-cyanobenzyl)-5-imidazolylmethyl]-1-phenylpiperazine-2,5-dione hydrochloride] | ≤ 50 | 
N#Cc1ccc(Cn2cncc2CN2CC(=O)N(Cc3ccccc3)CC2=O)cc1 [Example 5, 4-benzyl-1-[1-(4-cyanobenzyl)-5-imidazolylmethyl]-piperazine-2,5-dione hydrochloride] |  | ≤ 50
